Data from patent US9322066B2, “Predictors for cancer treatment” (priority 2011, dated 2016).

Test system: relapsed or refractory, rituximab-naive or -sensitive follicular B-cell NHL
Assay: Time to next anti-lymphoma therapy, Vc-R vs rituximab study, by biomarker
Format: in vivo, human
Parameters: Median, Time to Next Anti-Lymphoma Therapy / Time to Next Anti-Lymphoma Therapy, Median: unit not given here
From the text: Non-Hodgkin lymphoma (NHL) encompasses several unique malignant lymphoid disease entities that vary in clinical behavior, morphologic appearance, immunologic, and molecular phenotype. […] A randomized, open-label, active-controlled, multicenter, multinational, prospective study to compare the efficacy and safety of the combination of bortezomib and rituximab (Vc-R) to single-agent rituximab in subjects who have relapsed or refractory, rituximab-naive or -sensitive follicular B-cell NHL was performed.
Subjects were centrally randomized to Treatment Groups A (Vc-R) or B (rituximab) in a 1:1 ratio taking into account the following stratification factors: • Follicular Lymphoma International Prognostic Index (FLIPI) score (low [0 or 1 factor], intermediate [2 factors], high [≧3 factors]); • Prior rituximab therapy (yes, no); • Time since last dose of anti-lymphoma therapy (≦1 year, >1 year); • Region (United States/Canada, European Union, Rest of World).
The following clinical endpoints were included in the analysis within each treatment group and an overall comparison was made with the biomarker-related endpoints: Progression-free survival, defined as the interval between the date of randomization and the date of progressive disease (PD) or death, whichever is first reported in the ITT population; overall survival; overall response rate (complete response [CR]+CR unconfirmed [CRu]+partial response [PR]); overall CR rate (CR+CRu); duration of response; time to next anti-lymphoma therapy; and treatment free interval.

[1] = PSMB5/L206M: C/C, High Tumor Burden
[2] = PSMB5/L206M: C/C, ≦65 years old
[3] = PSMB5/R24C: C/C, >1 year since last anti-lymphoma treatment
[4] = PSMB5/R24C: C/T, Ann Arbor Stage IV
[5] = PSMB5/R24C: C/T, High Tumor Burden
[6] = PSMB6/A234D: C/C, >1 year since last anti-lymphoma treatment
[7] = PSMB6/A234D: C/C, Ann Arbor Stage IV
[8] = PSMB6/A234D: C/C, European Union
[9] = PSMB6/A234D: C/C, High Tumor Burden
[10] = PSMB6/A234D: C/C, ≦65 years old
[11] = PSMB6/P107A: C/C, >1 year since last anti-lymphoma treatment
[12] = PSMB6/P107A: C/C, Ann Arbor Stage IV
[13] = PSMB6/P107A: C/C, High Tumor Burden
[14] = PSMB6/P107A: C/C, ≦65 years old
[15] = PSMB8/G8R: G/G, >1 year since last anti-lymphoma treatment
[16] = PSMB8/G8R: G/G, Ann Arbor Stage IV
[17] = PSMB8/G8R: G/G, High Tumor Burden
[18] = PSMB8/R141C: C/C, >1 year since last anti-lymphoma treatment
[19] = PSMB8/R141C: C/C, Ann Arbor Stage IV
[20] = PSMB8/R141C: C/C, European Union
[21] = PSMB8/R141C: C/C, High Tumor Burden
[22] = PSMB8/R141C: C/C, ≦65 years old
[23] = PSMB8/V182M: G/G, >1 year since last anti-lymphoma treatment
[24] = PSMB8/V182M: G/G, Ann Arbor Stage IV
[25] = PSMB8/V182M: G/G, European Union
[26] = PSMB8/V182M: G/G, High Tumor Burden
[27] = PSMB8/V182M: G/G, ≦65 years old
[28] = PSMB9/G9E: G/G, >1 year since last anti-lymphoma treatment
[29] = PSMB9/G9E: G/G, Ann Arbor Stage IV
[30] = PSMB9/G9E: G/G, High Tumor Burden
[31] = PSMB9/V32I: C/C, 5 Prior Lines of Therapy
[32] = PSMB9/V32I: C/C, >1 year since last anti-lymphoma treatment
[33] = PSMB9/V32I: C/C, Ann Arbor Stage IV
[34] = PSMB9/V32I: C/C, High Tumor Burden

rituximab
Time to Next Anti-Lymphoma Therapy, Median (PSMB5/L206M: C/C, European Union): 675
Time to Next Anti-Lymphoma Therapy, Evt/N [1]: 108/147
Time to Next Anti-Lymphoma Therapy, Median [1]: 396
Time to Next Anti-Lymphoma Therapy, Evt/N (PSMB5/L206M: C/C, No Subgroup): 173/276
Time to Next Anti-Lymphoma Therapy, Median (PSMB5/L206M: C/C, No Subgroup): 546
Time to Next Anti-Lymphoma Therapy, Evt/N [2]: 130/198
Time to Next Anti-Lymphoma Therapy, Median [2]: 489
Time to Next Anti-Lymphoma Therapy, Evt/N [3]: 81/137
Time to Next Anti-Lymphoma Therapy, Median [3]: 649
Time to Next Anti-Lymphoma Therapy, Evt/N (PSMB5/R24C: C/C, No Subgroup): 147/235
Time to Next Anti-Lymphoma Therapy, Median (PSMB5/R24C: C/C, No Subgroup): 546
Time to Next Anti-Lymphoma Therapy, Evt/N (PSMB5/R24C: C/C, ≦65 years old): 113/170
Time to Next Anti-Lymphoma Therapy, Median (PSMB5/R24C: C/C, ≦65 years old): 489
Time to Next Anti-Lymphoma Therapy, Evt/N [4]: 11/15
Time to Next Anti-Lymphoma Therapy, Median [4]: 421
Time to Next Anti-Lymphoma Therapy, Evt/N [5]: 19/21
Time to Next Anti-Lymphoma Therapy, Median [5]: 317
Time to Next Anti-Lymphoma Therapy, Evt/N [6]: 98/165
Time to Next Anti-Lymphoma Therapy, Median [6]: 688
Time to Next Anti-Lymphoma Therapy, Evt/N [7]: 86/127
Time to Next Anti-Lymphoma Therapy, Median [7]: 457
Time to Next Anti-Lymphoma Therapy, Evt/N [8]: 75/119
Time to Next Anti-Lymphoma Therapy, Median [8]: 675
Time to Next Anti-Lymphoma Therapy, Evt/N [9]: 108/147
Time to Next Anti-Lymphoma Therapy, Median [9]: 396
Time to Next Anti-Lymphoma Therapy, Evt/N (PSMB6/A234D: C/C, No Subgroup): 173/276
Time to Next Anti-Lymphoma Therapy, Median (PSMB6/A234D: C/C, No Subgroup): 546
Time to Next Anti-Lymphoma Therapy, Evt/N [10]: 130/198
Time to Next Anti-Lymphoma Therapy, Median [10]: 489
Time to Next Anti-Lymphoma Therapy, Evt/N [11]: 95/159
Time to Next Anti-Lymphoma Therapy, Median [11]: 702
Time to Next Anti-Lymphoma Therapy, Evt/N [12]: 84/124
Time to Next Anti-Lymphoma Therapy, Median [12]: 485
Time to Next Anti-Lymphoma Therapy, Evt/N [13]: 104/140
Time to Next Anti-Lymphoma Therapy, Median [13]: 380
Time to Next Anti-Lymphoma Therapy, Evt/N (PSMB6/P107A: C/C, No Subgroup): 167/265
Time to Next Anti-Lymphoma Therapy, Median (PSMB6/P107A: C/C, No Subgroup): 550
Time to Next Anti-Lymphoma Therapy, Evt/N [14]: 125/189
Time to Next Anti-Lymphoma Therapy, Median [14]: 504
Time to Next Anti-Lymphoma Therapy, Evt/N [15]: 91/155
Time to Next Anti-Lymphoma Therapy, Median [15]: 702
Time to Next Anti-Lymphoma Therapy, Evt/N [16]: 80/120
Time to Next Anti-Lymphoma Therapy, Median [16]: 457
Time to Next Anti-Lymphoma Therapy, Evt/N (PSMB8/G8R: G/G, European Union): 70/111
Time to Next Anti-Lymphoma Therapy, Median (PSMB8/G8R: G/G, European Union): 649
Time to Next Anti-Lymphoma Therapy, Evt/N (PSMB8/G8R: G/G, Female): 94/160
Time to Next Anti-Lymphoma Therapy, Median (PSMB8/G8R: G/G, Female): 649
Time to Next Anti-Lymphoma Therapy, Evt/N [17]: 104/140
Time to Next Anti-Lymphoma Therapy, Median [17]: 374
Time to Next Anti-Lymphoma Therapy, Evt/N (PSMB8/G8R: G/G, No Subgroup): 165/264
Time to Next Anti-Lymphoma Therapy, Median (PSMB8/G8R: G/G, No Subgroup): 537
Time to Next Anti-Lymphoma Therapy, Evt/N (PSMB8/G8R: G/G, ≦65 years old): 123/189
Time to Next Anti-Lymphoma Therapy, Median (PSMB8/G8R: G/G, ≦65 years old): 504
Time to Next Anti-Lymphoma Therapy, Evt/N [18]: 98/165
Time to Next Anti-Lymphoma Therapy, Median [18]: 688
Time to Next Anti-Lymphoma Therapy, Evt/N [19]: 86/127
Time to Next Anti-Lymphoma Therapy, Median [19]: 457
Time to Next Anti-Lymphoma Therapy, Evt/N [20]: 75/119
Time to Next Anti-Lymphoma Therapy, Median [20]: 675
Time to Next Anti-Lymphoma Therapy, Evt/N [21]: 108/147
Time to Next Anti-Lymphoma Therapy, Median [21]: 396
Time to Next Anti-Lymphoma Therapy, Evt/N (PSMB8/R141C: C/C, No Subgroup): 173/276
Time to Next Anti-Lymphoma Therapy, Median (PSMB8/R141C: C/C, No Subgroup): 546
Time to Next Anti-Lymphoma Therapy, Evt/N [22]: 130/198
Time to Next Anti-Lymphoma Therapy, Median [22]: 489
Time to Next Anti-Lymphoma Therapy, Evt/N [23]: 98/165
Time to Next Anti-Lymphoma Therapy, Median [23]: 688
Time to Next Anti-Lymphoma Therapy, Evt/N [24]: 86/127
Time to Next Anti-Lymphoma Therapy, Median [24]: 457
Time to Next Anti-Lymphoma Therapy, Evt/N [25]: 75/119
Time to Next Anti-Lymphoma Therapy, Median [25]: 675
Time to Next Anti-Lymphoma Therapy, Evt/N [26]: 108/147
Time to Next Anti-Lymphoma Therapy, Median [26]: 396
Time to Next Anti-Lymphoma Therapy, Evt/N (PSMB8/V182M: G/G, No Subgroup): 173/276
Time to Next Anti-Lymphoma Therapy, Median (PSMB8/V182M: G/G, No Subgroup): 546
Time to Next Anti-Lymphoma Therapy, Evt/N [27]: 130/198
Time to Next Anti-Lymphoma Therapy, Median [27]: 489
Time to Next Anti-Lymphoma Therapy, Evt/N [28]: 97/163
Time to Next Anti-Lymphoma Therapy, Median [28]: 688
Time to Next Anti-Lymphoma Therapy, Evt/N [29]: 86/126
Time to Next Anti-Lymphoma Therapy, Median [29]: 457
Time to Next Anti-Lymphoma Therapy, Evt/N (PSMB9/G9E: G/G, European Union): 75/119
Time to Next Anti-Lymphoma Therapy, Median (PSMB9/G9E: G/G, European Union): 675
Time to Next Anti-Lymphoma Therapy, Evt/N [30]: 107/145
Time to Next Anti-Lymphoma Therapy, Median [30]: 396
Time to Next Anti-Lymphoma Therapy, Evt/N (PSMB9/G9E: G/G, No Subgroup): 172/274
Time to Next Anti-Lymphoma Therapy, Median (PSMB9/G9E: G/G, No Subgroup): 546
Time to Next Anti-Lymphoma Therapy, Evt/N (PSMB9/G9E: G/G, ≦65 years old): 129/196
Time to Next Anti-Lymphoma Therapy, Median (PSMB9/G9E: G/G, ≦65 years old): 489
Time to Next Anti-Lymphoma Therapy, Evt/N (PSMB9/R60H: A/G, Male): 22/28
Time to Next Anti-Lymphoma Therapy, Median (PSMB9/R60H: A/G, Male): 380
Time to Next Anti-Lymphoma Therapy, Evt/N [31]: 7/8
Time to Next Anti-Lymphoma Therapy, Median [31]: 228
Time to Next Anti-Lymphoma Therapy, Evt/N [32]: 96/160
Time to Next Anti-Lymphoma Therapy, Median [32]: 649
Time to Next Anti-Lymphoma Therapy, Evt/N [33]: 84/123
Time to Next Anti-Lymphoma Therapy, Median [33]: 457
Time to Next Anti-Lymphoma Therapy, Evt/N [34]: 106/142
Time to Next Anti-Lymphoma Therapy, Median [34]: 396
Time to Next Anti-Lymphoma Therapy, Evt/N (PSMB9/V32I: C/C, ≦65 years old): 127/192
Time to Next Anti-Lymphoma Therapy, Median (PSMB9/V32I: C/C, ≦65 years old): 489
